The values that follow come from US20220177446A1, “ALKYNE COMPOUNDS AS IRAK INHIBITORS, PREPARATION METHODS AND MEDICINAL USES THEREOF” (Eternity Bioscience Inc., priority 2020, published 2022).

The target in assay [1] is T1, full length human IRAK4 protein (Homo sapiens, UniProt Q9NWZ3).
T1 construct: Purified full length human IRAK4 protein; purchased Signal Chem I12-10G-125
T1 sequence (Q9NWZ3 1-460): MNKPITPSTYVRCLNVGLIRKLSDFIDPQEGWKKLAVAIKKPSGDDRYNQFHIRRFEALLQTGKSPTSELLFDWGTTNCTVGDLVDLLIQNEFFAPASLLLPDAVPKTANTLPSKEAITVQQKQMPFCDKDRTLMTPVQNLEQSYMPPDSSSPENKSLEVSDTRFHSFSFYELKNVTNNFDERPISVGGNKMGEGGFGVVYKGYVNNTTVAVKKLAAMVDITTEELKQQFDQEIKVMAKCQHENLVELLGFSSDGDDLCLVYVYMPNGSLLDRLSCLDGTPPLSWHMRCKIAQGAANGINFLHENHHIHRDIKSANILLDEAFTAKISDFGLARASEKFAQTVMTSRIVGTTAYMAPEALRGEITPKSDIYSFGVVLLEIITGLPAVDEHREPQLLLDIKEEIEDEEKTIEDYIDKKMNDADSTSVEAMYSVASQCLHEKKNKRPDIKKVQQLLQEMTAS
As to the kind of experiment: IRAK4 Biochemical Assay (Promega ADP-Glo IRAK4 Kinase Enzyme System). As to conditions: 3 nM enzyme, 250 μM ATP; for IC50: 2 μM MBP, 60 min at room temperature; for IRAK4 Biochemical Assay Max Inhibition (%): maximum inhibition. As for the experimental part:
For the routine compound screening, an IRAK4 kinase assay was performed as follows using Promega ADP-Glo IRAK4 Kinase Enzyme System (Promega, Cat #2198-AD). Purified full length human IRAK4 protein (Signal Chem; Cat #I12-10G-125) was diluted to a concentration 6 nM in assay buffer (25 mM MOPS, pH 7.2, 12.5 mM β-glycerol-phosphate, 25 mM MgCl2, 5 mM EGTA, 2 mM EDTA, 0.0025% Brij-35, add 0.25 mM DTT to Kinase Assay Buffer prior to use) containing IRAK4 inhibitor at 2× the final concentration in 0.4% DMSO. The reaction was performed in PerkinElmer Proxiplate-384 plus white plate (Fisher Scientific, Cat #50-905-2761) and started by the addition of an equal volume of the assay buffer containing 4 μM native swine myelin basic protein (MBP) and 500 μM ATP to achieve a final concentration of 3 nM enzyme, 2 μM MBP, 250 μM ATP, 1× compound, and 0.2% DMSO. The kinase reaction was allowed to run for 60 min at room temperature (25-27° C.), then 5 μL of ADP-Glo was added to the reaction in each well followed by 40 minutes-incubation at RT. To detect converted […], 10 μL Detection Buffer was added into each well and Incubate at RT in dark for 30 minutes. Finally, luminescence was read using Tecan with 1000 ms of integration time. The luminescent signal positively correlates with ADP amount and kinase activity. Data was analyzed by GraphPad Prism and IC50 was calculated using function log(inhibitor) vs. response—Variable slope (four parameters). Percentage of inhibition was calculated as below:
(§1) % inhibition=(1−(Reading(Sample)−Reading(Negative Control))/(Reading(Positive Control)−Reading(Negative Control)))×100%
The 0% inhibition value comes from the Reading of Positive Control wells having 0 nM compound. The 100% inhibition value comes from the Reading of Negative Control wells having no IRAK4 kinase.

Assay [2] deals with T2, CYP2D6 (Homo sapiens, UniProt P10635).
T2 construct: tissue Corning Co, LTD; host or cells: human liver microsomes
T2 sequence (P10635 whole entry): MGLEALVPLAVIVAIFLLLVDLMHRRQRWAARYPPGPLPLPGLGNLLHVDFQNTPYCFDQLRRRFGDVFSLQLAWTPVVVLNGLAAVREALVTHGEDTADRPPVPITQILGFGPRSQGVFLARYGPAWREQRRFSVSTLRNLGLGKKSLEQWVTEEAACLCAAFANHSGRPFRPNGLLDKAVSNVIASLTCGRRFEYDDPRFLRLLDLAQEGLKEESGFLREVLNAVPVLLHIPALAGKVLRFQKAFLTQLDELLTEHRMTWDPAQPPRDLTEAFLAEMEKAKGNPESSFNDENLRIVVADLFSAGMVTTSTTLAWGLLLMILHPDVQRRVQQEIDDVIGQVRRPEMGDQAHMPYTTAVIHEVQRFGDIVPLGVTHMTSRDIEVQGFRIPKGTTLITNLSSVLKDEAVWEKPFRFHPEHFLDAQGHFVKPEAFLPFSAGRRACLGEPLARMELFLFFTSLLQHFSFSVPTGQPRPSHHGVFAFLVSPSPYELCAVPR
Kind of assay: In vitro study for inhibiting cytochrome P450 (CYP) 2D6 using human liver microsomes. It counts as in vitro ADME. To be noted: human liver microsomes 0.1 mg/ml, probe substrate dextromethorphan 4 μM, 30 min at 37° C.; read-out: IC50 of inhibition on CYP2D6. How it is done:
Potassium phosphate buffer ([…] from Sangon Biotech. Dilute 20×PBS to 100 mM PBS buffer. The stock solutions of NADPH was 5 mM and the final concentration in the incubation system was 1 mM. The stock solution of MgCl2 were 7.5 mM and t the final concentration in the incubation system was 3 mM.
1.1 Preparation of probe substrate solution: The stock solutions of probe substrates of dextromethorphan (Sigma Cat No. D9684) was prepared by using DMSO and the final concentration in incubation system was 4 μM.
1.2 Preparation of selective inhibitors solution: The 30 mM stock solutions of inhibitor of CYP isoforms of Quinidine (Sigma, Q0750) was prepared by using DMSO and the final concentration in incubation system were 30, 10, 3, 1, 0.3, 0.03, 0.003 μM.
1.3 Preparation of test compound 5 and 6 solution: The 30 mM test compound 5 and 6 solutions were prepared by using DMSO and the final concentration in incubation system were 30, 10, 3, 1, 0.3, 0.03, 0.003 μM.
1.4 Human liver microsomes (HLM) were purchased by Corning Co, LTD. Diluted the HLM into 0.25 mg/ml and the final concentration was 0.1 mg/ml.
Added 20 μL working solutions of test compound 5 or 6 or selective inhibitors into a 96-well plate. Then added 40 μL of the HLM working solution and 20 μL of the substrate working solution. […] Samples are now ready for LC/MS/MS analysis.
For orientation: Microsomes from liver hold many membrane-bound enzymes, among them those of drug oxidation.

For assay [3], the target named is T3, IRAK4 (Homo sapiens, UniProt Q9NWZ3).
T3 construct: host or cells: human peripheral blood mononuclear cells (PBMCs)
T3 sequence (Q9NWZ3 1-460): T1 sequence (Q9NWZ3 1-460)
As to the kind of experiment: IRAK4 Human PBMC TNFα Cell Based Assay (AlphaLISA). To be noted: TNFα measured. How it is done:
In this assay, serially diluted compounds were incubated with 1×10^4 human peripheral blood mononuclear cells (PBMCs) from STEMCELL (Cat #70025.1) per well of 384-well plate (Fisher Scientific; 50-905-2761) and cultured with TexMACS medium (Miltenyi, Cat #130-097-196), stimulated by R848 (0.5 μM) or IL-1β (10 ng/ml). Plates were covered with lids and incubated for 4 h (R848, Fisher Scientific, Cat #NC9801605) or 24 h (IL-1β, Fisher Scientific, Cat #ENRIL1BI) at 37° C. in a humidified tissue-culture incubator. After a brief centrifugation at 1000 rpm for 5 minutes, 5 μl of culture medium was used for the measurement of the TNFα amount using TNFα (human) AlphaLISA Detection Kit (PerkinElmer, Cat #AL208C) according to manufacturer's protocol. A biotinylated anti-TNFα antibody binds to the Streptavidin-coated Donor beads while another anti-TNFα antibody is conjugated to AlphaLISA Acceptor beads. In the presence of the TNFα, the beads come into close proximity. The excitation of the Donor beads causes the release of singlet oxygen molecules that triggers a cascade of energy transfer in the Acceptor beads, resulting in a sharp peak of light emission at 615 nm. AlphaLISA assay plates were read using PHERAstar. Percentage of inhibition was calculated as below:
as §1
The 0% inhibition value comes from the Reading of Positive Control wells having 0 nM compound. The 100% inhibition value comes from the Reading of Negative Control wells having no R848 or IL-1β.

The mark [4] stands for this setting: human PBMCs stimulated by IL-1β (10 ng/ml), 24 h, read-out: IRAK4 PBMC AlphaLISA IL-1β (IC50).
Setting [5] is: human PBMCs stimulated by R848 (0.5 μM), 4 h, read-out: IRAK4 PBMC AlphaLISA R848 (IC50).

Where two headings read alike, the source gives them in different places.

As usually defined, the IC50 is the point on the concentration scale where inhibition reaches its midpoint. Regarding `CC[C@@H]1[C@H](F)C(=O)N[C@@H]1COc1ncc(C#CCOC)c2cc(C(N)=O)c(OC)cc12` [Example 6, 1-(((2S,3S,4S)-3-ethyl-4-fluoro-5-oxopyrrolidin-2-yl)methoxy)-7-methoxy-4-(3-methoxyprop-1-yn-1-yl)isoquinoline-6-carboxamide], the IC50 in assay [1] stood at 14.5 nM; in assay [2], 13700 nM; in assay [3] (setting [4]) it was 1.3 nM; in assay [3] (setting [5]) it was 1 nM. The “IRAK4 Biochemical Assay Max Inhibition (%)” value in assay [1] stood at 100.0%.
`CC[C@@H]1[C@H](F)C(=O)N[C@@H]1COc1ncc(C#CC(C)(C)N(C)C)c2cc(C(N)=O)c(OC(C)C)cc12` [Example 35, 4-(3-(dimethylamino)-3-methylbut-1-yn-1-yl)-1-(((2S,3S,4S)-3-ethyl-4-fluoro-5-oxopyrrolidin-2-yl)methoxy)-7-isopropoxyisoquinoline-6-carboxamide]: the IC50 worked out at 39 nM in assay [1], 110 nM in assay [3] (setting [4]) and 36 nM in assay [3] (setting [5]). For the same compound, in assay [1], the “IRAK4 Biochemical Assay Max Inhibition (%)” value amounted to 93.0%.
For `CC[C@@H]1[C@H](F)C(=O)N[C@@H]1COc1ncc(C#CC(C)(C)OC)c2cc(C(N)=O)c(OC)cc12` [Example 28, 1-(((2S,3S,4S)-3-ethyl-4-fluoro-5-oxopyrrolidin-2-yl)methoxy)-7-methoxy-4-(3-methoxy-3-methylbut-1-yn-1-yl)isoquinoline-6-carboxamide], in that order: 37 nM, 9.2 nM, 5.5 nM and 100.0%.
For `CC[C@@H]1[C@H](F)C(=O)N[C@@H]1COc1ncc(C#Cc2cn[nH]c2)c2cc(C(N)=O)c(OC)cc12` [Example 20, 4-((1H-pyrazol-4-yl)ethynyl)-1-(((2S,3S,4S)-3-ethyl-4-fluoro-5-oxopyrrolidin-2-yl)methoxy)-7-methoxyisoquinoline-6-carboxamide], in that order: 22 nM, 1.7 nM, 3 nM and 100.0%.
The corresponding values for `CC[C@@H]1[C@H](F)C(=O)N[C@@H]1COc1ncc(C#CCOC)c2cc(C(N)=O)c(OC(C)C)cc12` [Example 25, 1-(((2S,3S,4S)-3-ethyl-4-fluoro-5-oxopyrrolidin-2-yl)methoxy)-7-isopropoxy-4-(3-methoxyprop-1-yn-1-yl)isoquinoline-6-carboxamide] are 27 nM, 3.9 nM, 5 nM and 103.0%.
Consider `CC[C@@H]1[C@H](F)C(=O)N[C@@H]1COc1ncc(C#CCN(C)C)c2cc(C(N)=O)c(OC)cc12` [Example 5, 4-(3-(dimethylamino)prop-1-yn-1-yl)-1-(((2S,3S,4S)-3-ethyl-4-fluoro-5-oxopyrrolidin-2-yl)methoxy)-7-methoxyisoquinoline-6-carboxamide], for which the IC50 in assay [1] is 6.2 nM; in assay [2] it was more than 30000 nM; in assay [3] (setting [4]), 2.2 nM; in assay [3] (setting [5]), 0.7 nM. Further, the “IRAK4 Biochemical Assay Max Inhibition (%)” value in assay [1] came out at 100.0%.
In the case of `CC[C@@H]1[C@H](F)C(=O)N[C@@H]1COc1ncc(C#Cc2ncccn2)c2cc(C(N)=O)c(OC)cc12` [Example 16, 1-(((2S,3S,4S)-3-ethyl-4-fluoro-5-oxopyrrolidin-2-yl)methoxy)-7-methoxy-4-(pyrimidin-2-ylethynyl)isoquinoline-6-carboxamide], the results for the IC50 in assay [1], in assay [3] (setting [4]) and in assay [3] (setting [5]) were 19 nM, 8.7 nM and 1.7 nM, respectively. The “IRAK4 Biochemical Assay Max Inhibition (%)” value in assay [1] was determined as 99.0%.
As to `CC[C@@H]1[C@H](F)C(=O)N[C@@H]1COc1ncc(C#CC(C)(C)NC(=O)OC(C)(C)C)c2cc(C(N)=O)c(OC)cc12` [Example 1, tert-butyl (4-(6-carbamoyl-1-(((2S,3S,4S)-3-ethyl-4-fluoro-5-oxopyrrolidin-2-yl)methoxy)-7-methoxyisoquinolin-4-yl)-2-methylbut-3-yn-2-yl)carbamate], the IC50 in assay [1] amounted to 8.4 nM; in assay [3] (setting [4]), 18.1 nM; in assay [3] (setting [5]), 16 nM. The “IRAK4 Biochemical Assay Max Inhibition (%)” value in assay [1] was determined as 100.0%.
The corresponding values for `CC[C@@H]1[C@H](F)C(=O)N[C@@H]1COc1ncc(C#CC(C)(C)O)c2cc(C(N)=O)c(OC(C)C)cc12` [Example 29, 1-(((2S,3S,4S)-3-ethyl-4-fluoro-5-oxopyrrolidin-2-yl)methoxy)-4-(3-hydroxyl-3-methylbut-1-yn-1-yl)-7-isopropoxyisoquinoline-6-carboxamide] are 26 nM, 3.5 nM, 6.7 nM and 100.0%.
